Measurements published in patent US20240279302A1, “OLFACTORY RECEPTOR EXPRESSING METHOD AND RESPONSE MEASUREMENT METHOD” (Kao Corporation, priority 2021, published 2024).
“Also recorded” adds a separate entry of the source.

How the values were obtained:
[1] = biological target: T1, consensus 10A2, (c) Ortholog (Homo sapiens, UniProt Q9H208, A297G/C30S/G257S/H207R/I240V/M268V/N222H/T20I/V292F); assay: Luciferase assay (odorant response); assay type: cell-based
T1 construct: expressed in transfected cells; host or cells: HEK293
T1 sequence (Q9H208 with tags, fused parts or gaps T20I/C30S/H207R/N222H/I240V/G257S/M268V/V292F/A297G): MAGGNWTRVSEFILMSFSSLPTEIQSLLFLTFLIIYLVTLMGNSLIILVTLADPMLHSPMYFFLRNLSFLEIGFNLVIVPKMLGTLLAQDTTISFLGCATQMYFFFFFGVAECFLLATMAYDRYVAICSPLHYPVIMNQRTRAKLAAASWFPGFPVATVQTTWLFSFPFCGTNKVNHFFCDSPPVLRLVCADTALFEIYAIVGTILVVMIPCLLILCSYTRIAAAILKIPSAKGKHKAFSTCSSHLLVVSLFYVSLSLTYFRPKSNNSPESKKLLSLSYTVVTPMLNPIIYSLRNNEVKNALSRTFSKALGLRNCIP
Description: (§1) For luciferase assay, a reaction solution was prepared according to composition shown in Table 4, left standing for 20 minutes in a clean bench, and then added to each well of a 96-well plate (Becton, Dickinson and Company). Subsequently, 100 μL of HEK293 cells suspended in DMEM (Nacalai Tesque, Inc.) was inoculated at 2×10^5 cells/cm^2 to each well, and cultured for 24 hours in an incubator kept at 37° C. and 5% CO2. Cells expressing no olfactory receptor (Mock) were provided as a control.
(§2) The medium was removed from the cultures prepared in 2), and 75 μL of a test substance solution with a predetermined concentration prepared with a fresh medium was added thereto. The cells were cultured for 4 hours in a CO2 incubator and the luciferase gene was sufficiently expresses in the cells. Luciferase activity was measured using Dual-Glo™ luciferase assay system (Promega Corp.) in accordance with the operation manual of the product. A luminescence value derived from firefly luciferase induced by test substance stimulation in each well of the 96-well plate was divided by a luminescence value derived from Renilla luciferase to calculate a signal, which was then used in analysis. The signal under each transfection condition was normalized with the signal under a stimulation-free condition defined as 0% and the signal by stimulation with 30 μM forskolin defined as 100%, and used as a response (%) in analysis.

[2] = biological target: T2, consensus 10A4, (c) Ortholog (Homo sapiens, UniProt Q9H209, A244S/A267T/E4G/H132R/H139R/I140R/I51T/K296S/K303R/L305V/Q237K/Q264R/S141A/S155P/S269P/S279Y/S293L/S312P/T22S/V195L); assay: Luciferase assay (odorant response); assay type: cell-based
T2 construct: expressed in transfected cells; host or cells: HEK293
T2 sequence (Q9H209 1-315 with the stated changes): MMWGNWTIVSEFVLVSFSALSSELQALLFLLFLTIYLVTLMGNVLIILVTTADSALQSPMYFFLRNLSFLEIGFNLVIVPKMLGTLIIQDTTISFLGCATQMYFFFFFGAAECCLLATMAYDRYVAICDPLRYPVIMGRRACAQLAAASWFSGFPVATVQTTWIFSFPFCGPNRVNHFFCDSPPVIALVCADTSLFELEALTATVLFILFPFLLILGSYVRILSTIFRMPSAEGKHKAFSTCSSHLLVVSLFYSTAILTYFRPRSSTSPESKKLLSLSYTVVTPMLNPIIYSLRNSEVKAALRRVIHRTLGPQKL
Description: as §1, §2

[3] = biological target: T3, consensus 10A4 R262Q variant (Homo sapiens, UniProt Q9H209, A244S/A267T/E4G/H132R/H139R/I140R/I51T/K296S/K303R/L305V/Q237K/Q264R/R262Q/S141A/S155P/S269P/S279Y/S293L/S312P/T22S/V195L); assay: Luciferase assay (odorant response); assay type: cell-based
T3 construct: expressed in transfected cells; host or cells: HEK293
Description: as §1, §2
(§3) Whether responsiveness coinciding with difference among individuals in sensory evaluation would be obtained was tested by applying the consensus design (c) to each human olfactory receptor newly identified in FIGS. 5 and 6, and then introducing an amino acid sequence reported to have difference among individuals (FIG. 7).

[4] = biological target: T4, consensus OR10A2 variant of H43R, H207R, and K258T (Homo sapiens, UniProt Q9H208, A297G/C30S/G257S/H207R/H43R/I240V/K258T/M268V/N222H/T20I/V292F); assay: Luciferase assay (odorant response); assay type: cell-based
T4 construct: expressed in transfected cells; host or cells: HEK293
T4 sequence (Q9H208 with tags, fused parts or gaps with the stated changes): as the sequence (Q9H208 with tags, fused parts or gaps T20I/C30S/H207R/N222H/I240V/G257S/M268V/V292F/A297G) above, with H57R, K272T counted along it
Description: as §1, §2, §3

[5] = biological target: T5, consensus olfactory receptor 5C1 with N5K mutation (Homo sapiens, UniProt Q8NGR4, A10R/A30T/A50V/C35F/G245C/H231R/H313C/I178V/I206V/K177E/L166F/L6F/M255L/M47V/M55V/N23D/N5K/Q142R/Q307R/R131G/R8W/S194N/S238R/S288A/T114A/T219A/T34I/V17I/V235A); assay: Luciferase assay (odorant response); assay type: cell-based; settings: versus consensus 5C1
T5 construct: expressed in transfected cells; host or cells: HEK293
T5 sequence (Q8NGR4 1-320 with the stated changes): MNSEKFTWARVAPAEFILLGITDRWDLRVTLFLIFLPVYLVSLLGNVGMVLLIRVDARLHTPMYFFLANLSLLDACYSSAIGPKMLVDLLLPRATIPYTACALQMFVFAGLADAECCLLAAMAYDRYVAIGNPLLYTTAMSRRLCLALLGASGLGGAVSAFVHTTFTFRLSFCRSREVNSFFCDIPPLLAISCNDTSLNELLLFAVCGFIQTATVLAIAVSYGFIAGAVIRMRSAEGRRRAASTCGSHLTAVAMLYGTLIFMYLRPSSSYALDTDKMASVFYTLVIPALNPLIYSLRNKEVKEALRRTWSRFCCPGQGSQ
Description: as §1, §2, §3

6Y1 = settings: as disclosed in Non Patent Literature 2; cited from earlier work
[6] = biological target: T6, OR2A25 (original human receptor) (Homo sapiens, UniProt A4D2G3); assay: Luciferase assay (odorant response); assay type: cell-based
T6 construct: expressed in transfected cells; host or cells: HEK293
T6 sequence (A4D2G3 whole entry): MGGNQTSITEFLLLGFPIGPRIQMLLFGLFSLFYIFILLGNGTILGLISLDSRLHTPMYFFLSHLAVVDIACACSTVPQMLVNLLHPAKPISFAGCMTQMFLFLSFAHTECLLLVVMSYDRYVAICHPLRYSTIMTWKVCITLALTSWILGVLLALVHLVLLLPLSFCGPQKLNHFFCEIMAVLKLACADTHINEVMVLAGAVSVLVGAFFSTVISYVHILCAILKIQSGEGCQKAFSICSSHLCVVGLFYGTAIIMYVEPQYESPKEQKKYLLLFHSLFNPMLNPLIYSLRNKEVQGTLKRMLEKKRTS
Description: as §1, §2

[7] = biological target: T7, consensus olfactory receptor 6B2 with R122C and C179R mutations (Homo sapiens, UniProt Q6IFH4, C161Y/C179R/C234R/E83D/G146A/H133Q/I215V/I48T/L135I/L142V/L17F/L255M/L256I/M157V/P138T/Q268R/Q89R/R122C/S64G/T78I/V136M/V15L/V166A/V250I/V281L/W219G); assay: Luciferase assay (odorant response); assay type: cell-based; settings: versus consensus 6B2
T7 construct: expressed in transfected cells; host or cells: HEK293
T7 sequence (Q6IFH4 with tags, fused parts or gaps with the stated changes): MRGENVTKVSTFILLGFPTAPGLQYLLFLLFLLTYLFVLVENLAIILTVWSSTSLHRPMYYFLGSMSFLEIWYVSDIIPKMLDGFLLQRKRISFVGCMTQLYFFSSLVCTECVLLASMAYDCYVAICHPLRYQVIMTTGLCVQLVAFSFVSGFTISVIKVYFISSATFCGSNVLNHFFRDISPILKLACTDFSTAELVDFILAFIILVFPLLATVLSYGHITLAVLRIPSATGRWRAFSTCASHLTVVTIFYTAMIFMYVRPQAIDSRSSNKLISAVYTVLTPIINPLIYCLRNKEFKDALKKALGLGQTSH
Description: as §1, §2, §3

Row | Structure (SMILES) | response of consensus 10A2 [1] | response of consensus 10A4 [2] | responsiveness of the 10A4 R262Q variant [3] | responsiveness of the 10A2 variant of H43R, H207R, and K258T [4] | other results
1 | CCCCCCC/C=C/C=O [(E)-2-decenal] | can recognize | can recognize; also recorded: lower responsiveness | no change in responsiveness | markedly low responsiveness | –
2 | CCCCCCCCC/C=C/C=O [(E)-2-dodecenal] | can recognize | can recognize; also recorded: lower responsiveness | no change in responsiveness | markedly low responsiveness | –
3 | CC(C)=CCCC(C)=CC=O [citral] | – | – | – | – | responsiveness of consensus 5C1 with N5K [5]: markedly reduced
4 | CC(=O)C(C)=O [diacetyl] | – | – | – | – | response of 6Y1 (6Y1): responds
5 | CC(C)=CCC/C(C)=C/CO [geraniol] | – | – | – | – | response of 2A25 (ranking of affinity for 2 agonists) [6]: responded to geraniol at a lower concentration in comparison with geranyl formate
6 | CC(C)C=O [isobutyraldehyde] | – | – | – | – | responsiveness of consensus 6B2 with R122C and C179R [7]: markedly reduced
